Results on one compound are retold here after patent publication US20210030908A1 (priority 2013, published 2021).

Like-named read-outs stand apart in the source and are kept apart here.

For assay [1], the system named is Bacillus atrophaeus spore strip. The assay is classed as cell-based. The note with it: for Sterilization (6-log reduction of Bacillus atrophaeus), Exposure Time 5 Minutes (CT = 250): 3,000 ppmv ClO2 in air, 700 feet/sec, nozzle 2.54 cm from target, CT in ppmv-hrs, per sample replicate.
For another assay, the system named is anthrax spores. The note with it: gas or vapor phase application, prior art; cited from earlier work.
The subject of another assay is mold spores. The note with it: time averaged concentration about 500 to 1500 ppmv over a 12 hour period, prior art; cited from earlier work.

Consider `[O][Cl+][O-]` [chlorine dioxide], for which the “Sterilization (6-log reduction of Bacillus atrophaeus), Exposure Time 5 Minutes (CT = 250)” value in assay [1] (Group 1 spore strips, pre-humidified for one hour at about 75 degrees F.) is listed as “− (“−” indicates at least a 6-log reduction of Bacillus atrophaeus)”; in assay [1] (Group 2 spore strips, no pre-humidification prior to test), “− (“−” indicates at least a 6-log reduction of Bacillus atrophaeus)”. In assay [1] (every test (all exposure times, with and without pre-humidification)), the “Oxidation of the target” value was “every test resulted in oxidation of the target”. Besides, the “Sterilization outcome” value is recorded as “some sterilization” in assay [1] (no pre-humidification, exposure times of 30 seconds, 1 minute, and 2 minutes, at CT's of 25, 50, and 100); “successful sterilization of all targets” in assay [1] (no pre-humidification, exposure times of at least 5 minutes at a CT of 250); “successful sterilization of the targets for all applications” in assay [1] (pre-humidified application zones, exposure times greater than or equal to 1 minute, CT greater than or equal to 50). In assay [1] (pre-humidified application zones, 30 seconds at a CT of 25), the “Applications resulting in successful sterilization” value is listed as 75%. For the same compound, in the assay with anthrax spores, the “CT found effective for sterilizing anthrax spores” value was 9000 ppmv-hrs. For the same compound, the “CT found effective for killing mold spores and eliminating allergenic effects” value in the assay with mold spores is given as 6000-18000 ppmv-hrs.
